According to ChEMBL document CHEMBL1145553, “Possible chemical mechanisms underlying the antitumor activity of S-deoxyleinamycin” (Bioorg Med Chem Lett, 2008):

Key:
[1] = Cleavage of supercoiled pGL2 basic DNA assessed as number of strand breaks per plasmid at 150 uM in presence of thiol
[2] = Cleavage of supercoiled pGL2 basic DNA assessed as nicked open circular form DNA level at 150 uM in presence of thiol
[3] = Cleavage of supercoiled pGL2 basic DNA assessed as number of strand breaks per plasmid at 150 uM
[4] = Cleavage of thiol-mediated supercoiled pGL2 basic DNA assessed as nicked open circular form DNA level at 150 uM in presence 1 M methanol
[5] = Cleavage of supercoiled pGL2 basic DNA assessed as nicked open circular form DNA level at 150 uM
[6] = Cleavage of thiol-mediated supercoiled pGL2 basic DNA assessed as nicked open circular form DNA level at 150 uM in presence 1 M ethanol
[7] = Cleavage of thiol-mediated supercoiled pGL2 basic DNA assessed as nicked open circular form DNA level at 150 uM in presence 10 mM desferal
[8] = Cleavage of thiol-mediated supercoiled pGL2 basic DNA assessed as nicked open circular form DNA level at 150 uM in presence […]
[9] = Cleavage of thiol-mediated supercoiled pGL2 basic DNA assessed as nicked open circular form DNA level at 150 uM in presence 100 ug/ml catalase
[10] = Cleavage of thiol-mediated supercoiled pGL2 basic DNA assessed as nicked open circular form DNA level at 150 uM in presence 100 ug/ml superoxide dismutase
[11] = Cleavage of thiol-mediated supercoiled pGL2 basic DNA assessed as nicked open circular form DNA level at 150 uM in presence 50 ug/ml superoxide dismutase
[12] = Cleavage of thiol-mediated supercoiled pGL2 basic DNA assessed as number of strand breaks per plasmid at 150 uM in presence of 1 M methanol
[13] = Cleavage of thiol-mediated supercoiled pGL2 basic DNA assessed as number of strand breaks per plasmid at 150 uM in presence of 1 M ethanol
[14] = Cleavage of thiol-mediated supercoiled pGL2 basic DNA assessed as number of strand breaks per plasmid at 150 uM in presence of 10 mM desferal
[15] = Cleavage of thiol-mediated supercoiled pGL2 basic DNA assessed as number of strand breaks per plasmid at 150 uM in presence of 10 mM diethylenetriaminepentaacetic acid
[16] = Cleavage of thiol-mediated supercoiled pGL2 basic DNA assessed as number of strand breaks per plasmid at 150 uM in presence of 1 M DMSO
[17] = Cleavage of thiol-mediated supercoiled pGL2 basic DNA assessed as number of strand breaks per plasmid at 150 uM in presence of 100 ug/ml catalase
[18] = Cleavage of thiol-mediated supercoiled pGL2 basic DNA assessed as nicked open circular form DNA level at 150 uM in presence 10 mM diethylenetriaminepentaacetic acid
HepG2 = assay: Growth inhibition of human HepG2 cells; format: functional
HeLa = assay: Cytotoxicity against human HeLa S3 cells; format: functional, cell-based

O=c1ssc2ccccc12
Activity [1]: 0.4 | Activity [2]: 33.1%

CC1(C)SSC(=O)C1(C)O (stereo unspecified)
Activity [3]: 0.2 | Activity [1]: 1.32 | Activity [4]: 27.5% | Activity [5]: 18.2% | Activity [2]: 73.1% | Activity [6]: 19% | Activity [7]: 25.9% | Activity [8]: 15.5% | Activity [9]: 19.3% | Activity [10]: 100% | Activity [11]: 100% | Activity [12]: 0.32 | Activity [13]: 0.21 | Activity [14]: 0.3 | Activity [15]: 0.21 | Activity [16]: 0.17 | Activity [17]: 0.21 | Activity [18]: 19%

BLEOMYCIN
GI50 (HepG2): 1 µM

C/C1=C\[C@@H](O)C(=O)/C=C/C=C\c2csc(n2)[C@@H](C)NC(=O)C[C@@]2(CC1)SSC(=O)[C@]2(C)O
IC50 (HeLa): 4 µM

N[C@@H](Cc1ccc(N(CCCl)CCCl)cc1)C(=O)O [MELPHALAN]
GI50 (HepG2): 17 µM

CC1(O)C(=O)S[S+]([O-])C1(C)C (stereo unspecified)
Activity [1]: 2.58 | Activity [2]: 92.5%

C/C1=C\[C@@H](O)C(=O)/C=C/C=C\c2csc(n2)[C@@H](C)NC(=O)C[C@@]2(CC1)[S+]([O-])SC(=O)[C@]2(C)O (stereo partly specified) [LEINAMYCIN]
IC50 (HeLa): 0.027 µM
